Converted amounts (≈) assume the structure as drawn.
Assays:
[1] = target: T1, murine Syk tyrosine kinase protein (GST:Syk 6-242) (Mus musculus, UniProt P48025); experiment: ADA method: displacement of the binding of scFv G4G11 with Syk (ELISA); conditions: small molecules at 10 μM, scFv G4G11 100 nM; read-out: In vit. inhib.: mean inhibition % of the binding of scFv G4G11 with Syk in the ADA method
T1 construct: made in house
Text: The term “percentage of inhibition” of the binding of an antibody or antibody fragment with Syk protein, particularly refers to the ratio […], where A consists of the intensity of a signal proportional to the quantity of an antibody or antibody fragment bound with Syk protein in the absence of a molecule according to the invention and B the intensity of the same signal in the presence of a molecule according to the invention under the same conditions. […] This test may be performed for example according to the protocol described in example 3-2) hereinafter.
The inventors developed the ADA (Antigen Displacement Assay) method to identify small molecules capable of displacing the association with scFv G4G11 with Syk. […] To understand the mode of action of C-13, the inventors firstly identified the binding site of G4G11 using the SPOT method^16. An epitope located on the N-terminal SH2 domain of Syk, comprising amino acids 65-74 and 100% preserved in mouse, rat and human sequences, was identified.
The ADA method was then applied to each of these […] molecules to measure the ability thereof to inhibit the binding of scFv G4G11 with Syk.
(§1) • 1) Chemical products and antibodies. A chemical bank of 3000 molecules (a varied subset) was acquired from ChemBridge, Inc. (San Diego, Calif.). Stocks of solutions of small molecules were prepared at a rate of 10 mM in DMSO (dimethylsulphoxide), except for C-13 (methyl 2-{5-[(3-benzyl-4-oxo-2-thioxo-1,3-thiazolidin-5-ylidene)methyl]-2-furyl}benzoate, ChemBridge ID No. 6197026) prepared in DMF (dimethylformamide). Unless specified otherwise, all the reagents were supplied by Sigma. Dinitrophenyl (DNP) hapten was acquired from Calbiochem. Sepharose GammaBind G and all the secondary antibodies were supplied by GE Health Amersham Biosciences. The anti-Syk, anti-Lyn, anti-Btk, anti-PLC-γ1, anti-PLC-γ2, anti-LAT, anti-SLP-76, anti-p38, anti-JNK, anti-Vav, anti-Akt1 and 9E10 antibodies conjugated with HRP were acquired from Santa Cruz Biotechnology. The anti-phospho-p44/42 MAP Kinase, anti-p44/42 MAP Kinase, anti-phospho-p38, anti-phospho-JNK, anti-phospho-Akt1 antibodies were acquired from Cell Signaling. The anti-phospho-LAT and anti-phospho-PLC-γ1 antibodies were supplied by Biosource and the anti-phospho-SLP-76 antibodies by BD Pharmingen. The 4G10 anti-phosphotyrosine monoclonal antibody was acquired from Upstate Biotechnology. • 2) ADA method: ELISA type high-speed molecule screening test, based on antibody displacement (WO 2005106481). The recombinant fusion protein GST:Syk 6-242^8 comprising the residues 6 to 242 of murine Syk tyrosine kinase protein illustrated in FIG. 8B (SEQ ID No. 4) was immobilised on an ELISA plate at a final concentration of 10 μg ml^−1. For the screening of the chemical molecule bank, the small molecules, diluted in PBS at a final concentration of 10 μM were added to the wells for one hour at ambient temperature, before adding the fragment scFv G4G11 at a final concentration of 100 nM for an additional hour. The binding of G4G11 with Syk was assessed by adding the 9E10 monoclonal antibody conjugated with HRP detecting the amino acid sequence EQKLISEEDLN of human c-myc protein located at the C-terminal end of the scFv fragment. To generate Syk mutants, targeted mutagenesis was used on GST:Syk 6-242 protein and the binding of G4G11 with the mutants was assessed in the presence of 5 μM of C-13. • 3) Cells, culture conditions and functional tests. Anti-DNP 2682-I mouse monoclonal antibody was used as the culture supernatant of hybridomas containing 1 μg/ml of IgE. Femoral bone marrow cells were sampled and cultured in Opti-MEM medium (Gibco) supplemented with 10% foetal calf serum and 4% X63 transfectant supernatant secreting murine IL-3. RBL-2H3 (ATCC) leukaemic rat basophil cells were maintained in a single-layer culture in RPMI 1640 medium supplemented with 10% foetal calf serum (Gibco). […]

RBL-2H3 cells = experiment: cells; type: cell-based, rat; conditions: Rattus norvegicus; RBL-2H3 cells; read-out: Degran. IC50: concentration inhibiting mast cell degranulation by 50%
Experimental: These 87 molecules were also tested in vitro to assess the ability thereof to inhibit RBL-2H3 cell degranulation (see table 1).
as §1, with “(Gibco). Measurements of β-hexosaminidase released by the RBL-2H3 cells were performed as described previously^7, except that, after 12-16 hours of incubation with anti-DNP IgE (0.5 μg/ml), the cells were incubated for 90 min at 37° C. in RPMI medium supplemented with the specified concentrations of C-13 or DMF (0.25%). The cells were stimulated for 45 min with DNP-BSA (50 ng ml^−1) or ionomycin (1.5 μM). The BMMC cells were incubated for one hour at 37° C. with anti-DNP IgE (100 ng/ml). They were then incubated with C-13 (3 μM) or DMF (0.3%) for 3 hours at 37° C., and stimulated with varied concentrations of DNP-BSA. The level of β-hexosaminidase released was measured 10 min later and the TNF-α titration was performed by means of a cytotoxicity test on L929 cells as described previously^10, 3 hours after stimulation. The results illustrated in FIG. 3 are representative of three independent experiments. • 4) Immunoprecipitations, in vitro kinase assays and immunodetection.” for “(Gibco).”

| inhibition at 10 µM [1] | IC50 (RBL-2H3 cells) | SMILES |
| --- | --- | --- |
| 77.5% | > 10 µg/mL | COc1ccc(OC)c(C2C(C(=O)c3ccccc3)=C(O)C(=O)N2CCCn2ccnc2)c1 (stereo not shown) [Molecule 5, 4-benzoyl-5-(2,5-dimethoxyphenyl)-3-hydroxy-1-[3-(1H-imidazol-1-yl)propyl]-1,5-dihydro-2H-pyrrol-2-one] |
| 42% | > 10 µg/mL | N#CC1=C(N)Oc2[nH]nc(-c3ccccc3)c2C1c1cccc(OC(=O)c2ccco2)c1 (stereo not shown) [Molecule 57, 3-(6-amino-5-cyano-3-phenyl-1,4-dihydropyrano[2,3-c]pyrazol-4-yl)phenyl 2-furoate] |
| 30% | ~5 µg/mL (≈ 11.1 µM) | COc1ccc(NC(=O)CSc2nc3ccccc3c(=O)n2Cc2ccco2)c(OC)c1 [Molecule 69] |
| 20% | > 10 µg/mL | COC(=O)c1ccc(NC(=O)CN(c2cccc(OC)c2)S(=O)(=O)c2ccccc2)cc1 [Molecule 81] |
| 42.5% | ~5 µg/mL (≈ 9.7 µM) | CCOC(=O)C1=C(c2ccccc2)NC(SCC(=O)Nc2cccc(OC)c2)=C(C#N)C1c1ccco1 (stereo not shown) [Molecule 55, ethyl 5-cyano-4-(2-furyl)-6-({2-[(3-methoxyphenyl)amino]-2-oxoethyl}thio)-2-phenyl-1,4-dihydro-3-pyridine carboxylate] |
| 51% | > 10 µg/mL | O=C(CCCN1C(=O)c2ccccc2C1=O)Nc1sc2c(c1C(=O)NCC1CCCO1)CCC2 (stereo not shown) [Molecule 30] |
| 57% | > 10 µg/mL | O=C(O)CCC(=O)N(Cc1ccccc1)Cc1cn(-c2ccccc2)nc1-c1cccs1 [Molecule 23, 4-(benzyl{[1-phenyl-3-(2-thienyl)-1H-pyrazol-4-yl]methyl}amino)-4-oxo butanoic acid] |
| 48.5% | > 10 µg/mL | O=C(C1=C(O)C(=O)N(CCCN2CCOCC2)C1c1ccccc1F)c1ccc(Cl)cc1 (stereo not shown) [Molecule 44, 4-(4-chlorobenzoyl)-5-(2-fluorophenyl)-3-hydroxy-1-[3-(4-morpholinyl)propyl]-1,5-dihydro-2H-pyrrol-2-one] |
| 69% | > 10 µg/mL | CCOC(=O)c1[nH]c(N2C(=O)C(O)=C(C(=O)c3ccccc3)C2c2ccc(OC)cc2)nc1C (stereo not shown) [Molecule 12] |
| 57.5% | > 10 µg/mL | Cc1ccc(-n2c3c(cc(C(=O)NC4CC(C)(C)NC(C)(C)C4)c2=O)C(=O)CC(C)(C)C3)cc1 [Molecule 22, 7,7-dimethyl-1-(4-methylphenyl)-2,5-dioxo-N-(2,2,6,6-tetramethyl-4-piperidinyl)-1,2,5,6,7,8-hexahydro-3-quinoline carboxamide] |
| 49.5% | > 10 µg/mL | Cc1ccc(C(=O)C(C)OC(=O)c2ccc3c(c2)C(=O)C(c2ccc(C)c(Cl)c2)C3=O)cc1 (stereo not shown) [Molecule 41] |
| 60% | > 10 µg/mL | Cc1cccc(OCC(=O)Nc2cccc3c(NC(=O)COc4cccc(C)c4)cccc23)c1 [Molecule 20] |
| 56.5% | > 10 µg/mL | CC(C)c1ccc(C2C(C(=O)c3ccccc3)=C(O)C(=O)N2CCN2CCOCC2)cc1 (stereo not shown) [Molecule 26] |
| 67.5% | > 10 µg/mL | COc1ccc(C(=O)C2=C(O)C(=O)N(CCN3CCOCC3)C2c2cccnc2)c(C)c1 (stereo not shown) [Molecule 14, 3-hydroxy-4-(4-methoxy-2-methylbenzoyl)-1-[2-(4-morpholinyl)ethyl]-5-(3-pyridinyl)-1,5-dihydro-2H-pyrrol-2-one] |
| 40% | > 10 µg/mL | CCOC(=O)c1c(-c2ccccc2)oc2ccc(OC(C(=O)O)c3ccccc3)cc12 (stereo not shown) [Molecule 60, {[3-(ethoxy carbonyl)-2-phenyl-1-benzofuran-5-yl]oxy} (phenyl) acetic acid] |
| 71% | > 10 µg/mL | COc1cc(C2C(C(=O)c3cccs3)=C(O)C(=O)N2CCc2ccccc2)cc(Br)c1O (stereo not shown) [Molecule 8, 5-(3-bromo-4-hydroxy-5-methoxyphenyl)-3-hydroxy-1-(2-phenylethyl)-4-(2-thienylcarbonyl)-1,5-dihydro-2H-pyrrol-2-one] |
| 47% | > 10 µg/mL | Cc1ccc(S(=O)(=O)N(CC(=O)N2CCN(Cc3ccccc3)CC2)c2ccc(C)c(C)c2)cc1 [Molecule 48, N-[2-(4-benzyl-1-piperazinyl)-2-oxoethyl]-N-(3,4-dimethylphenyl)-4-methylbenzenesulphonamide] |
